Data set [1] in a line: Solubility test at 10 mg/mL (visual inspection and light scattering). The data set is classed as physicochemical. The following applies: for Solubility, Condition 1 Acetate pH 4: 10 mg/mL compound in 100 mM acetate pH 4; for Solubility, Condition 2 Acetate pH 5: 10 mg/mL compound in 100 mM acetate pH 5; for Solubility, Condition 3 Phosphate pH 6: 10 mg/mL compound in 100 mM phosphate pH 6; for Solubility, Condition 4 Phosphate pH 7: 10 mg/mL compound in 100 mM phosphate pH 7; for Solubility, Condition 5 Phosphate pH 7.5: 10 mg/mL compound in 100 mM phosphate pH 7.5.

The subject of data set [2] is alternative complement pathway. Nature of the data set: Ex vivo alternative pathway complement activity (WIESLAB kit) in serum of dosed non-human primates. On the set-up: species or system Cynomolgus monkeys (Macaca fascicularis). As to conditions: NHP, subcutaneous 1840 nmol/kg, FIG. 1. As to the method: FIG. 1(a-g): Normalized “ex vivo” activity of the alternative complement pathway over time after administration of a test compound at time 0 to non-human primates. Compounds were given subcutaneously at a dose of 1840 nmol/kg. Complement activity (alternative pathway) was measured using the Wieslab kit. Activity was normalized using the predose (0) sample (set to 100%) and the negative control included in the kit. Normalized activity or average normalized activity for animals and standard deviation is shown.
Healthy male Cynomolgus monkeys (Macaca fascicularis) received single subcutaneous administrations of each test substance. Compounds were formulated in 20 mM phosphate adjusted with NaOH to pH 7.5 and mannitol for isotonicity and dosed at 1840 nmol/kg. Blood was collected from a femoral vein from each animal at the following times: Pre-dose, 1, 2, 4, 8, 24, 48, 72, 96 and 120 h (10 sampling times). Blood was collected into serum separation tubes and allowed to clot at room temperature. The tubes were centrifuged and resulting serum was aliquoted and snap-frozen over dry-ice and stored at nominally −80° C. until analysis. All NHP studies were performed in accordance with animal welfare laws and regulations, including approval of the study by a local ethical review process.
Serum isolated from non-human primates at specific time points after dosing were analyzed for alternative pathway complement activity using the Complement system Alternative Pathway WIESLAB® kit from Svar Life Science (previously Euro diagnostic AB, Sweden) following the manufacturer's protocol. Briefly, serum samples or controls were diluted in buffer and incubated in microtitre strips coated with specific activators of the alternative pathway. The wells were washed and formed C5b-9 was detected using included colorimetric reagents.
Absorbance at 405 nm was measured. The percent activity of the alternative complement pathway was calculated for each animal and timepoint relative to the pre-dose activity (0 hours) of the individual animal with subtraction of the negative control. […]

The nature of data set [3]: in vivo. On the set-up: species or system Cynomolgus monkeys (Macaca fascicularis). As to conditions: male, cynomolgus monkey, sc, 1840 nmol/kg, t½. In a few lines: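 Healthy male cynomolgus monkeys dosed once subcutaneously at 1840 nmol/kg in 20 mM phosphate pH 7.5 with mannitol. Serum sampled pre-dose to 120 h and total drug measured by SPE and LC-MS/MS. Terminal half-life calculated non-compartmentally as ln(2)/λz from the terminal log-linear phase.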

Data set [4] deals with classical complement pathway. Nature of the data set: In vitro haemolysis assay (inhibition of classical complement pathway). The data set is classed as cell-based, human. As to conditions: Table 3; human serum, sensitized sheep red blood cells; read-out: IC50[nM], in vitro analysis of inhibition of hemolysis. Summed up:
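Serially diluted compound (9 points) was preincubated 15 min at room temperature with diluted human serum, titrated per batch to give 70-90% maximal haemolysis, in Tris/casein buffer pH 7.4 with Mg2+/Ca2+. Antibody-sensitized sheep erythrocytes were then added for 30 min at 37° C, and the reaction was stopped with EDTA. Haemolysis was read at A405, with IC50 from 4PL fit.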

Data set [5] addresses T1, Human C3 (human, UniProt P01024 23-1663). Nature of the data set: cell-based or functional assay.
Data set [6] concerns the target T1, Human C3. Nature of the data set: cell-based or functional assay. This is another data set of the same source.

Positions of bridges follow the written chain, without caps; N, C: chain ends. Non-standard residues stand in square brackets, D forms with d. Residues, ends and D or L forms follow the SMILES beside them. Trp(1-Me) = Cn1cc(C[C@H](N)C(=O)O)c2ccccc21; Sar = CNCC(=O)O

T1 sequence (P01024 23-1663 limits assumed): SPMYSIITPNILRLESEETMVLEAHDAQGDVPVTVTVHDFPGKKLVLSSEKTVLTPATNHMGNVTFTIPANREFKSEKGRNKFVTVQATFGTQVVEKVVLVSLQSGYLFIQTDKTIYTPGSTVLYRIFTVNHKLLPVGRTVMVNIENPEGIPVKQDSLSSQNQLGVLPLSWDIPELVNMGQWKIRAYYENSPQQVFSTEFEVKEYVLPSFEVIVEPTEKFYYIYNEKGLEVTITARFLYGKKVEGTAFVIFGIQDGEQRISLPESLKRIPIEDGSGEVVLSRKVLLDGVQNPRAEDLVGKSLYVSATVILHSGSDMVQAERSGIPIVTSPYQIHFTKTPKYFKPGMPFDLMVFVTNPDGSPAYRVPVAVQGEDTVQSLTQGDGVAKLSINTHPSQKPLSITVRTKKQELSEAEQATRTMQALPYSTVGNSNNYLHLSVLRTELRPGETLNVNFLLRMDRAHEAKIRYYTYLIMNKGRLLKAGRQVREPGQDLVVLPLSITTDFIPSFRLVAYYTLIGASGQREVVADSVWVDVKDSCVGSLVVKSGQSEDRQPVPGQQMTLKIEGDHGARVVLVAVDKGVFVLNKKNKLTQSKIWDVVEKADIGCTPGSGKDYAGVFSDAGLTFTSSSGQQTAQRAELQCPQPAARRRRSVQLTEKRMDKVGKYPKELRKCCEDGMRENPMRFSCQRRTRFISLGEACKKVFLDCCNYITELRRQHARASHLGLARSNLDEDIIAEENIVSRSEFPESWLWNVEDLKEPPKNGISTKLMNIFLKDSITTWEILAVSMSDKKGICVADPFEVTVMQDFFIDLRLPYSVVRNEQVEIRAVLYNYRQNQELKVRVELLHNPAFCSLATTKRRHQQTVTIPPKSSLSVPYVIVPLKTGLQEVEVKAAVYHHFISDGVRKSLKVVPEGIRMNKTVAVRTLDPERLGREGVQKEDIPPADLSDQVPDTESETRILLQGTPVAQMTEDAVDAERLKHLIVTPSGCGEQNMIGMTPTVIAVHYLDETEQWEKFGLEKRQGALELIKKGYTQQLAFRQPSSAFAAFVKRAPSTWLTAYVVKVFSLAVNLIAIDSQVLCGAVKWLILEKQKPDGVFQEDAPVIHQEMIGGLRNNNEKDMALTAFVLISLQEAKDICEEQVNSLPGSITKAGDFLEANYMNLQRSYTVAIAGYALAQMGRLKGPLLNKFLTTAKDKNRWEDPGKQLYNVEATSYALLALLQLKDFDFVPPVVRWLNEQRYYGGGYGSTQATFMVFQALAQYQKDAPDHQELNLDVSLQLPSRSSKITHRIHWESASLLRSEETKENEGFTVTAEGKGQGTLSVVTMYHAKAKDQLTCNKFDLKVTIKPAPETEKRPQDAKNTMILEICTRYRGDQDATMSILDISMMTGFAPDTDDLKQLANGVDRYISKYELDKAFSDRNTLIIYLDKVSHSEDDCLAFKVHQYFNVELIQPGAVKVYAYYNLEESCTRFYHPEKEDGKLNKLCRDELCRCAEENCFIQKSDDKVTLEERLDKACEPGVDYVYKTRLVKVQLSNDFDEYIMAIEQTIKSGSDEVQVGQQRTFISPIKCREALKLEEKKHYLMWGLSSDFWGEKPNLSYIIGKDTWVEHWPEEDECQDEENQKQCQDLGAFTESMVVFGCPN

By half-life is commonly meant the time in which the quantity being followed falls by half. Low values mean rapid decline, high ones slow decline. What is called IC50 is the midpoint of a concentration-inhibition curve. On to `CC[C@H](C)[C@@H]1NC(=O)[C@@H](NC(=O)[C@H](Cc2ccc(O)cc2)NC(=O)[C@H](C)NC(=O)[C@H](CO)NC(=O)CNC(=O)[C@H](CCC(=O)O)NC(C)=O)CSSC[C@@H](C(=O)N(C)CC(=O)N[C@@H](CCC(=O)O)C(N)=O)NC(=O)[C@H](CCCNC(=N)N)NC(=O)[C@H](Cc2c[nH]cn2)NC(=O)[C@H](CCC(=O)O)NC(=O)CNC(=O)[C@H](Cc2c[nH]c3ccccc23)NC(=O)[C@H](CC(=O)O)NC(=O)[C@H](CCC(N)=O)NC(=O)[C@H](Cc2cn(C)c3ccccc23)NC1=O` [Compound 54] (Ac-EGSAYCI[Trp(1-Me)]QDWGEHRC[Sar]E-NH2; disulfide 6-16), for which, in data set [1], the “Solubility, Condition 1 Acetate pH 4” value is “− (denotes lack of solubility at the given condition, as UV absorbance at 340 nm exceeds 0.1 AU and/or it is visibly turbid or contains particles.)”; the “Solubility, Condition 2 Acetate pH 5” value is on record as “− (denotes lack of solubility at the given condition, as UV absorbance at 340 nm exceeds 0.1 AU and/or it is visibly turbid or contains particles.)”; the “Solubility, Condition 3 Phosphate pH 6” value is “+ (denotes solubility at the given condition, as determined by UV absorbance being less than 0.1 AU at 340 nm and the sample being clear when manually inspected.)”; the “Solubility, Condition 4 Phosphate pH 7” value was “+ (denotes solubility at the given condition, as determined by UV absorbance being less than 0.1 AU at 340 nm and the sample being clear when manually inspected.)”. Besides, the “Solubility, Condition 5 Phosphate pH 7.5” value in data set [1] was “+ (denotes solubility at the given condition, as determined by UV absorbance being less than 0.1 AU at 340 nm and the sample being clear when manually inspected.)”. Further, the “Duration of pharmacological activity (alternative complement pathway activity) in vivo” value (shortened to “Duration of pharmacological activity”) in data set [2] is recorded as “relatively short duration of action”. In data set [3], this molecule showed a half-life of 9.71 h. The IC50 in data set [4] is below 100 nM.

`CC[C@H](C)[C@H](NC(=O)[C@H](N)Cc1ccc(O)cc1)C(=O)N[C@H]1CSSC[C@@H](C(=O)N(C)[C@H](C(N)=O)[C@@H](C)CC)NC(=O)[C@H](CCCNC(=N)N)NC(=O)[C@H](Cc2c[nH]cn2)NC(=O)[C@H](C)NC(=O)CN(C)C(=O)[C@H](Cc2c[nH]c3ccccc23)NC(=O)[C@H](CC(=O)O)NC(=O)[C@H](CCC(N)=O)NC(=O)[C@H](Cc2cn(C)c3ccccc23)NC(=O)[C@H](C(C)C)NC1=O` [Cp40, H-{d}YIC(1)V[1-Me-Trp]QDW[Sar]AHRC(1)[N-Me-Ile]-NH2, reference compound]: the “Duration of pharmacological activity” value in data set [2] is recorded as “relatively short duration of action”. The half-life in data set [3] is 31.8 h. Besides, the IC50 in data set [4] is below 100 nM.

In the case of `CC[C@H](C)[C@@H]1NC(=O)[C@@H](NC(=O)[C@H](Cc2ccccc2)NC(C)=O)CSSC[C@@H](C(=O)N[C@H](C(=O)NCC(=O)N[C@@H](C)C(=O)N[C@@H](CCC(=O)O)C(=O)N[C@@H](CO)C(N)=O)[C@@H](C)O)NC(=O)[C@H](CCCNC(=N)N)NC(=O)[C@H](Cc2c[nH]cn2)NC(=O)[C@H](CCC(=O)O)NC(=O)CNC(=O)[C@H](Cc2c[nH]c3ccccc23)NC(=O)[C@H](CC(=O)O)NC(=O)[C@H](CCC(N)=O)NC(=O)[C@H](Cc2cn(C)c3ccccc23)NC1=O` [Compound 61] (Ac-FCI[Trp(1-Me)]QDWGEHRCTGAES-NH2; disulfide 2-12), in data set [1], the “Solubility, Condition 1 Acetate pH 4” value is recorded as “− (denotes lack of solubility at the given condition, as UV absorbance at 340 nm exceeds 0.1 AU and/or it is visibly turbid or contains particles.)”; the “Solubility, Condition 2 Acetate pH 5” value is “− (denotes lack of solubility at the given condition, as UV absorbance at 340 nm exceeds 0.1 AU and/or it is visibly turbid or contains particles.)”; the “Solubility, Condition 3 Phosphate pH 6” value is “+ (denotes solubility at the given condition, as determined by UV absorbance being less than 0.1 AU at 340 nm and the sample being clear when manually inspected.)”; the “Solubility, Condition 4 Phosphate pH 7” value was “+ (denotes solubility at the given condition, as determined by UV absorbance being less than 0.1 AU at 340 nm and the sample being clear when manually inspected.)”. In data set [1], the “Solubility, Condition 5 Phosphate pH 7.5” value was “+ (denotes solubility at the given condition, as determined by UV absorbance being less than 0.1 AU at 340 nm and the sample being clear when manually inspected.)”. Also, in data set [2], the “Duration of pharmacological activity” value was “relatively short duration of action”. The half-life in data set [3] is 23.3 h. Moreover, in data set [4], the concentration for half-maximal inhibition (IC50) was below 100 nM.

B1: Compound 1 (peptide)
peptide: Ac-ICIWQDWGAHRCT-NH2
modifications: disulfide 2-12
SMILES: CC[C@H](C)[C@H](NC(C)=O)C(=O)N[C@H]1CSSC[C@@H](C(=O)N[C@H](C(N)=O)[C@@H](C)O)NC(=O)[C@H](CCCNC(=N)N)NC(=O)[C@H](Cc2c[nH]cn2)NC(=O)[C@H](C)NC(=O)CNC(=O)[C@H](Cc2c[nH]c3ccccc23)NC(=O)[C@H](CC(=O)O)NC(=O)[C@H](CCC(N)=O)NC(=O)[C@H](Cc2c[nH]c3ccccc23)NC(=O)[C@H]([C@@H](C)CC)NC1=O
Take B1: the “CP hemolysis IC50” value in data set [5] was 150 nM. Moreover, the “IC50[nM], inhibition of hemolysis” value in data set [6] was below 250 nM.

For the origin of these results see patent US20220306695A1, “COMPSTATIN ANALOGUES AND THEIR MEDICAL USES” (priority 2019, published 2022).
